# Measured values taken from patent publication US20050118188A1, “Pharmaceutical composition for immunization against AIDS” (Aventis Pasteur, S.A., priority 2000, published 2005).
# Tested on: female BALB/c By J Ico mice
# Settings: mouse, in vivo
smiles,measurement,value
"CC(C)CCC[C@@H](C)[C@H]1CC[C@H]2[C@@H]3CC=C4C[C@@H](OC(=O)NCCN(C)C)CC[C@]4(C)[C@H]3CC[C@]12C.Cl [DCchol, DC-Chol hydrochloride]",Adjuvant effect on local IgA responses (in words),marked adjuvant effect
same,Adjuvant effect on serum anti-gp160 antibodies (in words),good adjuvant
same,Factor by which IgA normalized specific activities (NSA) were multiplied compared to gp160 alone,12
